The text below walks through data of PubChem BioAssay (NCI).

Structures are written as SMILES.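 48-hour exposure; five concentrations; linearly interpolated endpoints. TGI marks complete inhibition of growth.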

For the first test, the system named is U251 CNS. Nature of the test: growth of human tumour cells (NCI), 48 h.
Consider `CC1(C)OCN(c2ccc(N3CCOCC3)cc2)Cn2c1nc1ccccc12`, for which the TGI is over 100 µM.

As for `CC(C)(C)C1=C(Br)C(C(C)(C)C)OP1(=O)O` (configuration not stated), the TGI was over 100 µM.

The molecule `Cc1c(-c2ccccc2)cc(O)c2nc3ccccc3n12` showed a TGI of over 100 µM.

Consider `N[C@@H]1CCN(c2c(F)cc3c(=O)c(C(=O)O)cn4c3c2Oc2c-4ccc3c2ccc2ccccc23)C1`, for which the TGI is 10.5 µM.

In turn, `CN(C)/C=C/C(=CC=[N+](C)C)/C=C/N(C)C` registered a TGI of over 100 µM.

The molecule `Cc1ccc(C(=O)O)c(/C=C2\Cc3ccc(C)cc3C2=O)c1` registered a TGI of over 100 µM.

In turn, `COc1c(=O)cc2cc[nH]c3cc[nH]c1c23` came in with a TGI of over 100 µM.

For `CCCCC1(NN=C2CCCCC2)C(=O)N(c2ccccc2)N(c2ccccc2)C1=O`, the TGI was over 100 µM.

On to `CNC1(c2cc3ccccc3s2)CCCCC1`, for which the TGI came to 33.8 µM.

`N#C[S-].[La+3].c1cnc2c(c1)ccc1cccnc12.c1cnc2c(c1)ccc1cccnc12.c1cnc2c(c1)ccc1cccnc12` returned a TGI of 11.9 µM.

`Cc1cc(C)c2c(=O)cc(-c3cccc4ccccc34)[nH]c2n1` registered a TGI of 23.8 µM.

The molecule `N#Cc1c(-c2ccc(Cl)cc2)c2c(n(C3OC(CO)C(O)C(O)C3O)c1=S)CCCC2` (configuration not stated) registered a TGI of over 100 µM.

`O=S(Cc1ccccc1)c1nc2ccccc2nc1-c1cccs1` (configuration not stated) displayed a TGI of 33.5 µM.

`O=C1/C(=C\c2ccc([N+](=O)[O-])cc2)N(S(=O)(=O)c2ccccc2)c2ncccc21` had a TGI of 34.2 µM.

As to `CC(=O)SCCC(NC(=S)Nc1ccccc1)P(=O)(Oc1ccccc1)Oc1ccccc1` (configuration not stated), the TGI was over 100 µM.

In turn, `NC(=Nc1ccccc1Cl)c1ccccc1N` registered a TGI of over 100 µM.

In turn, `CCN1C[C@]2(C)CC[C@H](O)C34C1C(C[C@@H]32)[C@@]1(O)CC[C@H]2C[C@@H]4[C@@H]1[C@H]2O` yielded a TGI of over 100 µM.

Molecule `CCC(CC)NC1=C(NC(C)=O)C(=O)c2ccccc2C1=O` yielded a TGI of over 50 µM.

`COc1ccc(-c2c(C(C)=O)c(-c3ccccc3)n(C3OC(CO)C(O)C(O)C3O)c(=S)c2C#N)cc1` (configuration not stated): the TGI is over 100 µM.

`CC1(c2cccc(C3CC4(CCC3=O)OCCCCO4)c2)OCCO1` (configuration not stated) returned a TGI of over 100 µM.

For another test, the system named is OVCAR-4 ovarian. As to the kind of experiment: growth of human tumour cells (NCI), 48 h.
Molecule `CC1(C)OCN(c2ccc(N3CCOCC3)cc2)Cn2c1nc1ccccc12` returned a TGI of over 100 µM.

With `CC(C)(C)C1=C(Br)C(C(C)(C)C)OP1(=O)O` (configuration not stated), the TGI was over 100 µM.

`Cc1c(-c2ccccc2)cc(O)c2nc3ccccc3n12` returned a TGI of over 100 µM.

For `CN(C)/C=C/C(=CC=[N+](C)C)/C=C/N(C)C`, the TGI is over 100 µM.

As to `Cc1ccc(C(=O)O)c(/C=C2\Cc3ccc(C)cc3C2=O)c1`, the TGI was over 100 µM.

The molecule `COc1c(=O)cc2cc[nH]c3cc[nH]c1c23` showed a TGI of over 100 µM.

In turn, `CCCCC1(NN=C2CCCCC2)C(=O)N(c2ccccc2)N(c2ccccc2)C1=O` displayed a TGI of over 100 µM.

With `CNC1(c2cc3ccccc3s2)CCCCC1`, the TGI is over 100 µM.

With `N#C[S-].[La+3].c1cnc2c(c1)ccc1cccnc12.c1cnc2c(c1)ccc1cccnc12.c1cnc2c(c1)ccc1cccnc12`, the TGI turned out to be 16.8 µM.

`Cc1cc(C)c2c(=O)cc(-c3cccc4ccccc34)[nH]c2n1` gave a TGI of over 100 µM.

`N#Cc1c(-c2ccc(Cl)cc2)c2c(n(C3OC(CO)C(O)C(O)C3O)c1=S)CCCC2` (configuration not stated) displayed a TGI of over 100 µM.

For the molecule `O=S(Cc1ccccc1)c1nc2ccccc2nc1-c1cccs1` (configuration not stated), the TGI was 24.6 µM.

Take `CC(=O)SCCC(NC(=S)Nc1ccccc1)P(=O)(Oc1ccccc1)Oc1ccccc1` (configuration not stated): the TGI is over 100 µM.

`NC(=Nc1ccccc1Cl)c1ccccc1N` came in with a TGI of over 100 µM.

`CCN1C[C@]2(C)CC[C@H](O)C34C1C(C[C@@H]32)[C@@]1(O)CC[C@H]2C[C@@H]4[C@@H]1[C@H]2O`: the TGI is over 100 µM.

For the molecule `CCC(CC)NC1=C(NC(C)=O)C(=O)c2ccccc2C1=O`, the TGI was over 50 µM.

Take `COc1ccc(-c2c(C(C)=O)c(-c3ccccc3)n(C3OC(CO)C(O)C(O)C3O)c(=S)c2C#N)cc1` (configuration not stated): the TGI was over 100 µM.

In turn, `CC1(c2cccc(C3CC4(CCC3=O)OCCCCO4)c2)OCCO1` (configuration not stated) yielded a TGI of over 100 µM.

In another test the test system is HOP-62 NSCLC. As to the kind of experiment: growth of human tumour cells (NCI), 48 h.
As for `CC1(C)OCN(c2ccc(N3CCOCC3)cc2)Cn2c1nc1ccccc12`, the TGI was over 100 µM.

Molecule `CC(C)(C)C1=C(Br)C(C(C)(C)C)OP1(=O)O` (configuration not stated) gave a TGI of over 100 µM.

With `Cc1c(-c2ccccc2)cc(O)c2nc3ccccc3n12`, the TGI is over 100 µM.

In turn, `N[C@@H]1CCN(c2c(F)cc3c(=O)c(C(=O)O)cn4c3c2Oc2c-4ccc3c2ccc2ccccc23)C1` showed a TGI of over 100 µM.

Molecule `CN(C)/C=C/C(=CC=[N+](C)C)/C=C/N(C)C` came in with a TGI of over 100 µM.

Take `Cc1ccc(C(=O)O)c(/C=C2\Cc3ccc(C)cc3C2=O)c1`: the TGI was over 100 µM.

Take `CCCCC1(NN=C2CCCCC2)C(=O)N(c2ccccc2)N(c2ccccc2)C1=O`: the TGI is over 100 µM.

Take `CNC1(c2cc3ccccc3s2)CCCCC1`: the TGI is over 100 µM.

As for `Cc1cc(C)c2c(=O)cc(-c3cccc4ccccc34)[nH]c2n1`, the TGI was over 100 µM.

For `N#Cc1c(-c2ccc(Cl)cc2)c2c(n(C3OC(CO)C(O)C(O)C3O)c1=S)CCCC2` (configuration not stated), the TGI is over 100 µM.

`O=S(Cc1ccccc1)c1nc2ccccc2nc1-c1cccs1` (configuration not stated): the TGI amounted to 37.4 µM.

In turn, `O=C1/C(=C\c2ccc([N+](=O)[O-])cc2)N(S(=O)(=O)c2ccccc2)c2ncccc21` had a TGI of 46.2 µM.

As to `CC(=O)SCCC(NC(=S)Nc1ccccc1)P(=O)(Oc1ccccc1)Oc1ccccc1` (configuration not stated), the TGI is over 100 µM.

`NC(=Nc1ccccc1Cl)c1ccccc1N` showed a TGI of over 100 µM.

In the case of `CCN1C[C@]2(C)CC[C@H](O)C34C1C(C[C@@H]32)[C@@]1(O)CC[C@H]2C[C@@H]4[C@@H]1[C@H]2O`, the TGI was over 100 µM.

For the molecule `CC12C=CC(C)(C3C(=O)C4C(C(=O)C31)C1(C)C=CC4(C)S1=O)S2=O` (configuration not stated), the TGI was over 100 µM.

Molecule `CCC(CC)NC1=C(NC(C)=O)C(=O)c2ccccc2C1=O` showed a TGI of over 50 µM.

`COc1ccc(-c2c(C(C)=O)c(-c3ccccc3)n(C3OC(CO)C(O)C(O)C3O)c(=S)c2C#N)cc1` (configuration not stated): the TGI was over 100 µM.

Turning to `O=C(NN1C(=O)C(Cl)C1c1ccc(Cl)cc1)c1c(Cl)c(Cl)c(Cl)c(Cl)c1-c1nc2ccccc2[nH]1` (configuration not stated), the TGI was over 100 µM.

The molecule `CC1(c2cccc(C3CC4(CCC3=O)OCCCCO4)c2)OCCO1` (configuration not stated) returned a TGI of over 100 µM.

The test system of the next test is OVCAR-5 ovarian. As to the kind of experiment: growth of human tumour cells (NCI), 48 h.
For `CC(C)(C)C1=C(Br)C(C(C)(C)C)OP1(=O)O` (configuration not stated), the TGI was over 100 µM.

Turning to `Cc1c(-c2ccccc2)cc(O)c2nc3ccccc3n12`, the TGI is over 100 µM.

`N[C@@H]1CCN(c2c(F)cc3c(=O)c(C(=O)O)cn4c3c2Oc2c-4ccc3c2ccc2ccccc23)C1` showed a TGI of over 100 µM.

In turn, `CN(C)/C=C/C(=CC=[N+](C)C)/C=C/N(C)C` returned a TGI of over 100 µM.

For `Cc1ccc(C(=O)O)c(/C=C2\Cc3ccc(C)cc3C2=O)c1`, the TGI is over 100 µM.

Regarding `COc1c(=O)cc2cc[nH]c3cc[nH]c1c23`, the TGI is over 100 µM.

For the molecule `CNC1(c2cc3ccccc3s2)CCCCC1`, the TGI turned out to be 95.7 µM.

On to `N#C[S-].[La+3].c1cnc2c(c1)ccc1cccnc12.c1cnc2c(c1)ccc1cccnc12.c1cnc2c(c1)ccc1cccnc12`, for which the TGI came to 12.4 µM.

For `Cc1cc(C)c2c(=O)cc(-c3cccc4ccccc34)[nH]c2n1`, the TGI was over 100 µM.
